Data reported in US6432959B1, “Inhibitors of farnesyl-protein transferase” (Schering Corporation, priority 1998, dated 2002).
Values joined by “and” are separate entries in the source; they are usually repeats but may differ in a detail not shown here. Equal entries are not always repeated.

test system: not given; assay: not given; conditions: not given

SMILES | melting point
CC(C)(C)OC(=O)N1CCN(C(=O)NC2CCCCC2)[C@@H](C(=O)NCCc2cncn2Cc2ccc(F)cc2)C1 [Example 2] | 72 °C (dec.)
O=C(NCCc1cncn1CCc1ccccc1)[C@H]1CN(Cc2ccccc2)CCN1C(=O)NC1CCCCC1 [Example 28D, N4-phenylmethyl-N2-[2-[1-(phenylethyl)-1H-imidazol-5-yl]ethyl]-N1-cyclohexyl-1,2(R)-piperazinedicarboxamide] | 64.4 °C

Results, then the molecule that gave them:

melting point | SMILES
97.3 to 150.2 °C | CCS(=O)(=O)N1CCN(Cc2ccccc2)C[C@@H]1C(=O)NCCc1cncn1Cc1ccc(C#N)cc1 [Example 28K, N-[2-[1-[(4-cyanophenyl)methyl]-1H-imidazol-5-yl]ethyl]-1-(ethylsulfonyl)-4-(phenylmethyl)-2(R)-piperazinecarboxamide]
71 to 75 °C | CC(C)(C)OC(=O)N1CCN(C(=O)OCc2ccccc2)[C@@H](C(=O)NCCCn2ccnc2C(N)=O)C1 [Example 28Z]

molecular target: T1, partially purified rat brain farnesyl protein transferase (FPT) (Rattus norvegicus, UniProt Q02293+Q04631); assay: FPT IC50, in vitro enzyme assay (inhibition of Ras-CVLS farnesylation); format: biochemical; conditions: inhibition of Ras-CVLS farnesylation by partially purified rat brain FPT; value is a range stated for a group of compounds
T1 construct: partially purified rat brain farnesyl protein transferase (FPT); from tissue; host or cells: rat brain
Experimental: 1. In vitro enzyme assays: FPT IC50 (inhibition of farnesyl protein transferase, in vitro enzyme assay) are determined by the methods disclosed in WO/10515 or WO95/10516.

SMILES | IC50
N#Cc1ccc(Cn2cncc2CCNC(=O)[C@H]2CN(Cc3nccs3)CCN2C(=O)NC2CCCCC2)cc1 [Example 8] | 0.18 to 21 nM
CC(C)(C)CCN1CCN(C(=O)NC2CCCCC2)[C@@H](C(=O)NCCc2cncn2Cc2ccc(C#N)cc2)C1 [Example 9] | 0.18 to 21 nM
N#Cc1ccc(CN2CCN(C(=O)NC3CCCCC3)[C@@H](C(=O)NCCc3cncn3Cc3ccc(C#N)cc3)C2)cc1 [Example 10] | 0.18 to 21 nM
N#Cc1ccc(Cn2cncc2CCNC(=O)[C@H]2CN(Cc3ccccc3C#N)CCN2C(=O)NC2CCCCC2)cc1 [Example 11] | 0.18 to 21 nM
COc1ccc(CN2CCN(C(=O)NC3CCCCC3)[C@@H](C(=O)NCCc3cncn3Cc3ccc(C#N)cc3)C2)cc1 [Example 12] | 0.18 to 21 nM
N#Cc1ccc(Cn2cncc2CCNC(=O)[C@H]2CN(CC3CCCCC3)CCN2C(=O)NC2CCCCC2)cc1 [Example 13] | 0.18 to 21 nM
N#Cc1ccc(Cn2cncc2CCNC(=O)[C@H]2CN(Cc3ccc(F)cc3)CCN2C(=O)NC2CCCCC2)cc1 [Example 14] | 0.18 to 21 nM
N#Cc1ccc(Cn2cncc2CCNC(=O)[C@H]2CN(Cc3ccc(C(F)(F)F)cc3)CCN2C(=O)NC2CCCCC2)cc1 [Example 15] | 0.18 to 21 nM
N#Cc1ccc(Cn2cncc2CCNC(=O)[C@H]2CN(Cc3ccc(Cl)cc3)CCN2C(=O)NC2CCCCC2)cc1 [Example 16] | 0.18 to 21 nM
N#Cc1ccc(Cn2cncc2CCNC(=O)[C@H]2CN(Cc3ccc(Br)cc3)CCN2C(=O)NC2CCCCC2)cc1 [Example 17] | 0.18 to 21 nM
CC(=O)Nc1ccc(CN2CCN(C(=O)NC3CCCCC3)[C@@H](C(=O)NCCc3cncn3Cc3ccc(C#N)cc3)C2)cc1 [Example 20] | 0.18 to 21 nM
N#Cc1ccc(Cn2cncc2CCNC(=O)[C@H]2CN(Cc3cccc4ccccc34)CCN2C(=O)NC2CCCCC2)cc1 [Example 21] | 0.18 to 21 nM
Cc1ccc(CN2CCN(C(=O)NC3CCCCC3)[C@@H](C(=O)NCCc3cncn3Cc3ccc(C#N)cc3)C2)cc1 [Example 22] | 0.18 to 21 nM
N#Cc1ccc(Cn2cncc2CCNC(=O)[C@H]2CN(Cc3ccc(O)cc3)CCN2C(=O)NC2CCCCC2)cc1 [Example 23] | 0.18 to 21 nM
N#Cc1ccc(Cn2cncc2CCNC(=O)[C@H]2CN(Cc3ccc(Cl)cc3Cl)CCN2C(=O)NC2CCCCC2)cc1 [Example 24] | 0.18 to 21 nM
N#Cc1ccc(Cn2cncc2CCNC(=O)[C@H]2CN(Cc3cccc(Cl)c3)CCN2C(=O)NC2CCCCC2)cc1 [Example 25] | 0.18 to 21 nM
COc1cccc(CN2CCN(C(=O)NC3CCCCC3)[C@@H](C(=O)NCCc3cncn3Cc3ccc(C#N)cc3)C2)c1 [Example 26] | 0.18 to 21 nM
COc1ccccc1CN1CCN(C(=O)NC2CCCCC2)[C@@H](C(=O)NCCc2cncn2Cc2ccc(C#N)cc2)C1 [Example 27] | 0.18 to 21 nM
CCC(=O)N1CCN(Cc2ccccc2)C[C@@H]1C(=O)NCCc1cncn1Cc1ccc(C#N)cc1 [Example 28E, N-[2-[1-[(4-cyanophenyl)methyl]-1H-imidazol-5-yl]ethyl]-1-(1-oxopropyl)-4-phenyl(methyl)-2(R)-piperazinedicarboxamide] | 0.18 to 21 nM
CCCC(=O)N1CCN(Cc2ccccc2)C[C@@H]1C(=O)NCCc1cncn1Cc1ccc(C#N)cc1 [Example 28F, N-[2-[1-[(4-cyanophenyl)methyl]-1H-imidazol-5-yl]ethyl]-1-(1-oxobutyl)-4-phenyl(methyl)-2(R)-piperazinedicarboxamide] | 0.18 to 21 nM
N#Cc1ccc(Cn2cncc2CCNC(=O)C2CN(CCC3CCCCC3)CCN2C(=O)NC2CCCCC2)cc1 (centres unmarked) [Example 32] | 0.18 to 21 nM

The remaining lines, values ahead:

IC50 | SMILES
0.18 to 21 nM | N#Cc1ccc(Cn2cncc2CCNC(=O)[C@H]2CN(Cc3ccccc3)CCN2S(=O)(=O)Cc2ccccc2)cc1 [Example 28M, N-[2-[1-[(4-cyanophenyl)methyl]-1H-imidazol-5-yl]ethyl]-1-[(phenylmethyl)sulfonyl]-4-(phenylmethyl)-2(R)-piperazinecarboxamide]
0.18 to 21 nM | N#Cc1ccc(Cn2cncc2CCNC(=O)[C@H]2CN(Cc3ccccc3)CCN2C(=O)Cc2cc[n+]([O-])cc2)cc1 [Example 28P, N-[2-[1-[(4-cyanophenyl)methyl]-1H-imidazol-5-yl]ethyl]-4-(phenylmethyl)-1-(4-pyridinylacetyl)-2(R)-piperazinecarboxamide N1-oxide]
0.18 to 21 nM | N#Cc1ccc(Cn2cncc2CCNC(=O)[C@H]2CN(Cc3ccccc3Cl)CCN2C(=O)NC2CCCCC2)cc1 [Example 28]
0.18 to 21 nM | N#Cc1ccc(Cn2cncc2CCNC(=O)C2CN(CCc3ccccc3)CCN2C(=O)NC2CCCCC2)cc1 (centres unmarked) [Example 29]
0.18 to 21 nM | CS(=O)(=O)N1CCN(CCc2ccccc2)CC1C(=O)NCCc1cncn1Cc1ccc(C#N)cc1 (centres unmarked) [Example 31]
0.18 to 21 nM | CCCCCN1CCN(S(C)(=O)=O)C(C(=O)NCCc2cncn2Cc2ccc(C#N)cc2)C1 (centres unmarked) [Example 34]
0.18 to 21 nM | O=C(NCCc1cncn1Cc1ccc(Cl)c(Cl)c1)C1CN(CCC2CCCCC2)CCN1C(=O)NC1CCCCC1 (centres unmarked) [Example 36]
0.18 to 21 nM | N#Cc1ccc(Cn2cncc2CCNC(=O)C2CN(C(=O)c3ccncc3)CCN2C(=O)NC2CCCCC2)cc1 (centres unmarked) [Example 42]
0.18 to 21 nM | CCCCNC(=O)N1CCN(C(=O)NC2CCCCC2)C(C(=O)NCCc2cncn2Cc2ccc(C#N)cc2)C1 (centres unmarked) [Example 47]
0.18 to 21 nM | O=C(NCCc1cncn1Cc1ccc(C(F)(F)F)cc1)C1CN(CCc2cccc(Cl)c2)CCN1C(=O)NC1CCCCC1 (centres unmarked) [Example 53]
0.18 to 21 nM and 0.18 to 1.5 nM | N#Cc1ccc(Cn2cncc2CCNC(=O)C2CN(CCc3cccc(Cl)c3)CCN2C(=O)NC2CCCCC2)cc1 (centres unmarked) [Example 54]
0.18 to 21 nM and 0.18 to 1.5 nM | Cc1ccc(CCN2CCN(C(=O)NC3CCCCC3)C(C(=O)NCCc3cncn3Cc3ccc(C#N)cc3)C2)cc1O (centres unmarked) [Example 55]
0.18 to 21 nM | CC(C)(C)CCN1CCN(C(=O)NC2CCCCC2)C(C(=O)NCCc2cncn2Cc2ccc(Cl)c(Cl)c2)C1 (centres unmarked) [Example 56]
0.18 to 21 nM | COc1cccc(CN2CCN(C(=O)NC3CCCCC3)C(C(=O)NCCc3cncn3Cc3ccc(Cl)c(Cl)c3)C2)c1 (centres unmarked) [Example 58]
0.18 to 21 nM | Cn1cncc1CCNC(=O)C1CN(CCC2CCCCC2)CCN1C(=O)NC1CCCCC1 (centres unmarked) [Example 61]
0.18 to 21 nM | O=C(NCCc1cncn1Cc1ccccc1)[C@H]1CN(CCC2CCCCC2)CCN1C(=O)NC1CCCCC1 [Example 64]
